Measurements taken from ChEMBL document CHEMBL1201862, “PubChem BioAssay data set” (2004).
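Growth conditions: 96-well plates. Treatment: test compound, 48 hours, 5 concentrations. Analysis: linear interpolation between bracketing concentrations; unreached endpoints set to highest concentration. GI50 marks 50% less growth.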 Active and inactive are the calls of the source. No stated cut-off is given here; in the data, active = GI50 up to about 1.1 µM and inactive = higher.

Key:
Experiment in all cases: inhibition of tumour cell growth, NCI panel, 48 h
OVCAR-8 = tested on: OVCAR-8
HOP-62 = tested on: HOP-62
SF-539 = tested on: SF-539
SNB-75 = tested on: SNB-75
UACC-257 = tested on: UACC-257
SF-268 = tested on: SF-268
Hs-578T = tested on: Hs-578T
OVCAR-4 = tested on: OVCAR-4
M14 = tested on: M14
CAKI-1 = tested on: CAKI-1
HT-29 = tested on: HT-29
SF-295 = tested on: SF-295
OVCAR-3 = tested on: OVCAR-3
OVCAR-5 = tested on: OVCAR-5
SN12C = tested on: SN12C
ACHN = tested on: ACHN
MCF7 = tested on: MCF7
K562 = tested on: K562
UO-31 = tested on: UO-31

Measured: GI50

O=C(O)Cn1cnc2c(O)nc(Nc3ccccc3)nc21
inactive: OVCAR-8 > 100 µM | HOP-62 > 100 µM | SF-539 > 100 µM | SNB-75 > 100 µM | UACC-257 > 100 µM | SF-268 > 100 µM | Hs-578T > 100 µM | OVCAR-4 > 100 µM | M14 > 100 µM | CAKI-1 > 100 µM | HT-29 > 100 µM | SF-295 > 100 µM | OVCAR-3 > 100 µM | OVCAR-5 > 100 µM | SN12C > 100 µM | ACHN > 100 µM | MCF7 > 100 µM

COc1ccc(-n2cnc3c(NC(Cc4ccccc4)C(=O)O)ncnc32)cc1 (configuration not stated)
inactive: OVCAR-8 > 100 µM | HOP-62 > 100 µM | SNB-75 > 100 µM | UACC-257 > 100 µM | SF-268 > 100 µM | Hs-578T > 100 µM | OVCAR-4 > 100 µM | M14 > 100 µM | CAKI-1 > 100 µM | HT-29 > 100 µM | SF-295 > 100 µM | OVCAR-3 > 100 µM | OVCAR-5 > 100 µM | SN12C > 100 µM | ACHN > 100 µM | MCF7 > 100 µM | K562 > 100 µM | UO-31 > 100 µM

C=C(C)COC(=O)COCC(=O)OCC(=C)C
inactive: OVCAR-8 > 100 µM | HOP-62 > 100 µM | SNB-75 > 100 µM | UACC-257 > 100 µM | SF-268 > 100 µM | Hs-578T > 100 µM | OVCAR-4 > 100 µM | M14 > 100 µM | CAKI-1 > 100 µM | HT-29 > 100 µM | SF-295 > 100 µM | OVCAR-3 > 100 µM | OVCAR-5 > 100 µM | SN12C > 100 µM | ACHN > 100 µM | MCF7 > 100 µM | K562 > 100 µM | UO-31 > 100 µM

CCN(CC)c1ccc2cc(-c3csc(-c4ccc(N(C)C)cc4)n3)c(=O)oc2c1
inactive: OVCAR-8 > 100 µM | HOP-62 > 100 µM | SF-539 > 100 µM | SNB-75 23.1 µM | UACC-257 > 100 µM | SF-268 > 100 µM | Hs-578T > 100 µM | OVCAR-4 > 100 µM | M14 > 100 µM | CAKI-1 > 100 µM | HT-29 > 100 µM | SF-295 > 100 µM | OVCAR-5 > 100 µM | SN12C > 100 µM | ACHN > 100 µM | MCF7 > 100 µM | K562 > 100 µM | UO-31 > 100 µM

CN(Cc1c[n+]([O-])c2nc(N)nc(N)c2n1)c1ccc(C(=O)NC23CC4CC(CC(C4)C2)C3)cc1
inactive: OVCAR-8 > 100 µM | HOP-62 > 100 µM | SNB-75 20.2 µM | UACC-257 > 100 µM | SF-268 26.3 µM | Hs-578T 10.6 µM | M14 > 100 µM | CAKI-1 > 100 µM | SF-295 > 100 µM | OVCAR-3 > 100 µM | OVCAR-5 > 100 µM | SN12C > 100 µM | ACHN > 100 µM | MCF7 47.8 µM | K562 48.9 µM | UO-31 > 100 µM

COc1ccc2c3c([nH]c2c1)CCN(Cc1ccccc1)C3
inactive: OVCAR-8 48.3 µM | HOP-62 21.8 µM | SF-539 16.1 µM | SNB-75 37.3 µM | UACC-257 19.6 µM | SF-268 > 100 µM | Hs-578T 24.6 µM | OVCAR-4 62.8 µM | M14 16.2 µM | HT-29 27.2 µM | SF-295 11.5 µM | OVCAR-5 21 µM | SN12C 34 µM | ACHN 31.3 µM | MCF7 17.5 µM | K562 21.4 µM | UO-31 12.4 µM

O=c1nc(N2CCN(c3ccccc3)CC2)ccn1C1OC(CO)C(O)C1O (configuration not stated)
inactive: OVCAR-8 55.7 µM | HOP-62 > 100 µM | SF-539 > 100 µM | UACC-257 45.1 µM | SF-268 > 100 µM | Hs-578T > 100 µM | OVCAR-4 27.1 µM | M14 37.5 µM | CAKI-1 > 100 µM | HT-29 49.2 µM | SF-295 61.5 µM | OVCAR-3 56.4 µM | OVCAR-5 > 100 µM | SN12C > 100 µM | ACHN > 100 µM | MCF7 54.6 µM | K562 29.4 µM | UO-31 > 100 µM

CC1(C)O[C@H](C(=O)O)[C@@H](C(=O)O)O1
inactive: OVCAR-8 > 100 µM | HOP-62 > 100 µM | SF-539 > 100 µM | SNB-75 > 100 µM | UACC-257 > 100 µM | SF-268 > 100 µM | Hs-578T > 100 µM | OVCAR-4 > 100 µM | M14 > 100 µM | CAKI-1 > 100 µM | HT-29 > 100 µM | SF-295 > 100 µM | OVCAR-5 > 100 µM | SN12C > 100 µM | ACHN > 100 µM | MCF7 > 100 µM | K562 > 100 µM

Cc1ccc(S(=O)(=O)CNC(=O)C(O)(O)C(F)(F)F)cc1
inactive: OVCAR-8 > 100 µM | HOP-62 > 100 µM | SF-539 > 100 µM | UACC-257 > 100 µM | SF-268 > 100 µM | Hs-578T > 100 µM | OVCAR-4 > 100 µM | M14 > 100 µM | CAKI-1 > 100 µM | HT-29 > 100 µM | SF-295 > 100 µM | OVCAR-3 > 100 µM | OVCAR-5 > 100 µM | SN12C > 100 µM | MCF7 > 100 µM | K562 > 100 µM | UO-31 > 100 µM

COc1cc([N+](=O)[O-])c(S(=O)(=O)O)cc1-n1nc(C(=O)Nc2ccccc2)n[n+]1-c1cc(S(=O)(=O)[O-])c([N+](=O)[O-])cc1OC
inactive: OVCAR-8 > 100 µM | HOP-62 > 100 µM | SNB-75 > 100 µM | UACC-257 > 100 µM | SF-268 > 100 µM | Hs-578T > 100 µM | OVCAR-4 > 100 µM | M14 > 100 µM | CAKI-1 > 100 µM | HT-29 56 µM | SF-295 > 100 µM | OVCAR-3 > 100 µM | OVCAR-5 > 100 µM | SN12C > 100 µM | ACHN 93.8 µM | MCF7 > 100 µM | K562 88.7 µM | UO-31 > 100 µM

Cc1ccc(-n2nnc(C(N)=O)c2O)cc1
inactive: OVCAR-8 > 100 µM | HOP-62 > 100 µM | SNB-75 > 100 µM | UACC-257 > 100 µM | SF-268 > 100 µM | Hs-578T > 100 µM | OVCAR-4 > 100 µM | M14 > 100 µM | CAKI-1 > 100 µM | HT-29 > 100 µM | SF-295 > 100 µM | OVCAR-3 > 100 µM | OVCAR-5 > 100 µM | SN12C > 100 µM | ACHN > 100 µM | MCF7 > 100 µM | K562 > 100 µM | UO-31 > 100 µM
